# Where “and” joins values, the source holds several entries; their conditions need not be identical. Equal entries are not always repeated. Where two headings read alike, the source gives them in different places.
# What was measured:
# [1] = in vivo
# Experimental: (§1) For the toxicokinetic study, there were four groups of rabbit. […] Blood was collected and processed for plasma at predose, 5, 30, 60, 120, 240, and 360 minutes, and 24, 48, 72, 96, and 168 hours after administration.
# (§2) Approximately 1 mL of blood was collected by direct venipuncture of the jugular vein with a 3 mL syringe and 21 GA×1″ needle. Blood was immediately transferred into anticoagulant (potassium EDTA) coated microcentrifuge tubes. Blood was then centrifuged for five minutes at 3000×G at 4° C. Plasma was immediately separated into another microcentrifuge tube then kept in −20° C. freezer for LC-MS analysis.
# (§3) Briefly, the samples were assayed by Shimadzu SCL-10A controller with LC-10AD pump. The mobile phase was 50% by volume of 10 mM ammonium acetate and 50% by volume of methanol. The HPLC column was a)(Bridge Phenyl column, 5 μm, 50×2.0 mm. An isocratic elution was applied at 0.500 mL/min flow rate and column temperature was 30° C. […] The injection volume was 10 μL. […] The limit of quantitation (LOQ) of this method was 1 ng/mL.
# (§4) Toxicokinetic data analysis was based on standard noncompartmental pharmacokinetic methods. […] The maximum observed plasma concentration (Cmax) was determined by visual estimation from the data plot. Area under the plasma concentration vs. time curve from 0 to the time of the last measurable concentration (AUC) was calculated by the linear trapezoidal method. Elimination half-life (t1/2) was calculated as ln(2)/ke, where ke is the elimination rate constant determined by linear regression of the last three analytically measured points on the plasma concentration vs. time curve.
# [2] = test system: rabbit coronary microvessel endothelium; conditions: cited from earlier work
# [3] = human, in vivo, 1 mg; cited from earlier work
# [4] = test system: New Zealand White (NZW) rabbits; conditions: rabbit, in vivo
# Experimental: This procedure was repeated 24 hours later with the shorter application duration of 5 minutes.
# Eight (4 male and 4 female) NZW rabbits, 5-6 months old, were assigned to two groups according to the following study design:
# [5] = rabbit, in vivo, 1 mg; cited from earlier work
# [6] = test system: New Zealand White rabbits; conditions: rabbit, in vivo
# Experimental: For the ocular toxicity study, there were four groups. […] The total exposure was 12 doses over the period of 12 weeks. Clinical observations were performed on weekdays, and before and after each dosing. Following the final observations (i.e., one week after the last dose), the rabbits were sacrificed and the eyes were processed for histological evaluation.
# One drop of sterile proparacaine hydrochloride (a local anesthetic) was put on the eye (to be treated) 5 minutes before dose administration. […] The position of the device was checked to ensure that the active agent matrix was in immediate contact with the white part of the eye but not the cornea. Digital timers were used for accurate application times (i.e., 5, 10, or 20 minutes). After the given application duration, the applicator was carefully removed from the eye.
# All animals (both left and right eyes) were examined by indirect ophthalmoscopy of the cornea, conjunctiva, anterior chamber, vitreous, posterior chamber, and sclera. One to two drops each of phenylephrine hydrochloride and cyclopentolate hydrochloride were used as mydriatics. Observations on the anterior and posterior segments of the eye were made, graded, and recorded. A modified McDonald-Shadduck scale was used for grading eye irritation and ocular toxicity.
# The histopathological processing and evaluation were conducted at Colorado Histo-Prep (Fort Collins, Colo.). Briefly, a central cut of the eye globe was taken, as well as two cuts on either side of the central cut (calottes) at trim. For each eye, the central cut was placed into one cassette, and the two calottes were placed together into a separate cassette. The tissues were processed, embedded in paraffin wax, sectioned by microtome, and stained. Histopathology of the tissues was conducted on slides stained with hematoxylin and eosin. A pathologist who evaluated the tissues had no knowledge of the specific pharmacologic activity or formulation of the test articles. Standardized toxicological pathology criteria and nomenclature for the rabbit were used to categorize microscopic tissue changes.
# [7] = test system: New Zealand White rabbits; conditions: rabbit, in vivo; remark: listed apart in the source
# Experimental: Thirty six New Zealand White rabbits between 5 and 6 months of age were used for this study. […] Each group contained 12 rabbits, 6 males and 6 females. Rabbits were dosed in their right eye on study days 1, 2, 8, 15, 22 and 29 using a trans-scleral application system. Dosing was accomplished by filling the system with the appropriate test or control article and placing the applicator in full contact with the sclera of the right eye for 5 minutes. The contralateral eye served as an untreated control. Intraocular pressure (IOP) was measured via rebound tonometry in both eyes prior to dosing and within 5 minutes thereafter on days 1, 15 and 29. IOP was also measured the day after dosing on days 16 and 30 and in the recovery animals on day 43.
# [8] = in vivo; conditions: rabbit
# Experimental: as §1, §2, §3, §4
structure (smiles),measurement,setting,value
"C[C@@H]1C[C@H]2[C@@H]3CCC4=CC(=O)C=C[C@]4(C)[C@@]3(F)[C@@H](O)C[C@]2(C)[C@@]1(O)C(=O)CO [DEX, dexamethasone]",Tmax of DEX in plasma,[1]; rabbit,30 min
same,concentration that can inhibit prostaglandin release,[2],10^−7 M and ~40 ng/mL
"C[C@@H]1C[C@H]2[C@@H]3CCC4=CC(=O)C=C[C@]4(C)[C@@]3(F)[C@@H](O)C[C@]2(C)[C@@]1(O)C(=O)COP(=O)(O)O [DSP, dexamethasone sodium phosphate]",Cmax after IV injection,[3],10.5 ng/mL
same,IOP increase (mild effect),"[4]; both, New Zealand White",5-8 mmHg
same,"IOP increase (absolute value) compared to control eye change, immediately after application","[4]; male, New Zealand White",2 mmHg
same,"IOP increase (absolute value) compared to control eye change, immediately after treatment","[4]; male, New Zealand White",8 mmHg
same,change in IOP within one hour after treatment,"[4]; male, New Zealand White",4 mmHg
same,effect on the IOP of the treated eye (statistical analysis),[4],no effect
same,time for IOP to return to a normal range after treatment,[4],within one half hour
same,time for IOP to return to below baseline after treatment,[4],within one half hour
same,time for IOP to return to normal after treatment,[4],within one half hour
same,Cmax after IV injection,[5],786 ng/mL
same,corneal surface covered by corneal haze lesion,"[6]; New Zealand White, 4 weeks",about 40%
same,typical conjunctival injection score immediately after treatment,"[6]; New Zealand White, 12 weeks",1 or <1
same,Ocular Histopathology,[6],NSF
same,histopathology finding,[6],mild chronic inflammation at the limbus of the cornea
same,histopathology of eyes,[6],morphologically normal
same,"nature of ocular findings (conjunctival injection, discharge, corneal haze) in treated eyes",[6],transient and mild in nature
same,IOP effects related to dosing,[7],no IOP effects related to dosing
same,Tmax,[8],5 min
same,half-life of the drug in the rabbit,[1],2 to 3 h

# — patent US20190105194A1, “METHODS OF TREATING A SUBJECT WITH AN OCULAR CONDITION RESPONSIVE TO STEROID THERAPY” (Aciont Inc., priority 2017, published 2019)
